Six compounds from PMC4232510, “Identification of Functionally Important Residues of the Rat P2X4 Receptor by Alanine Scanning Mutagenesis of the Dorsal Fin and Left Flipper Domains” (PLoS ONE, 2014) can be followed below.

What all share (assay): whole-cell patch clamp, HEK293T cells expressing mutant
Type in all cases: cell-based
Holding throughout (details): for relative responsiveness: 100 µM agonist 2 s, relative to ATP (100%)
On the technique in general: The patch-clamp technique gives a direct electrical read-out from membranes.

One test concerns the target T1, rP2X4R I205A mutant (Rattus norvegicus, UniProt P51577, I205A).
T1 construct: expressed in transfected cells; host or cells: HEK293T
T1 sequence (P51577 1-388 I205A): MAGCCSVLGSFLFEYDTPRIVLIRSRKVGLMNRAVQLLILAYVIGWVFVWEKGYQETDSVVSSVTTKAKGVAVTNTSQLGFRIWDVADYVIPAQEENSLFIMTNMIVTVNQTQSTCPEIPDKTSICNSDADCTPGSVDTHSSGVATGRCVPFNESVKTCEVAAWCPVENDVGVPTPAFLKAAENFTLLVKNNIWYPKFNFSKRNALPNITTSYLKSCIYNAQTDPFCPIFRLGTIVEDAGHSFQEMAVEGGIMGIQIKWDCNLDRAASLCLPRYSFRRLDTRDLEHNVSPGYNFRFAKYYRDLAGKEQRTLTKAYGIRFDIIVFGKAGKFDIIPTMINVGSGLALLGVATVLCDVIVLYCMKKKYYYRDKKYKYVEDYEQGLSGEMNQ
On the procedure:
(§1) To express the recombinant channels, we used human embryonic kidney (HEK) 293T cells (American Type Culture Collection, Rockville, MD, USA) grown in Dulbecco modified Eagle’s medium (Thermo Fisher Scientific, Waltham, MA) supplemented with 10% fetal bovine serum (Sigma-Aldrich, St Louis, MO), 50 U/ml penicillin and 50 µg/ml streptomycin (both Thermo Fisher Scientific, Waltham, MA) in a humidified 5% CO2 and 95% air at 37°C. Cells were cultured in 75 cm^2 plastic culture flasks (NUNC, Rochester, NY) for 36–72 hours until reaching 80–95% confluence. Before the day of transfection, the cells were plated on 35 mm culture dishes (Sarstedt, Newton, NC) and incubated at 37°C for at least 24 h. Transfection was done using 2 µg of either WT or mutant receptor DNA with 2 µl of JetPrime reagent in 2 ml of Dulbecco modified Eagle’s medium, according to manufacturer’s instructions (PolyPlus-transfection, Illkirch, France). Transfected cells were identified by the fluorescence signal of EGFP using the Olympus IX71 inverted research microscope with fluorescence illuminators (Model IX71; Olympus, Melville, NY).
(§2) cDNAs encoding the sequences of the rP2X4 and mutated subunits were subcloned into the pIRES2-EGFP vector (Clontech, Mountain View, CA, USA). To generate the mutants, oligonucleotides (synthesized and provided by VBC-Genomics, Vienna, Austria or Sigma Aldrich) containing specific mutagenesis mismatches were introduced into the rP2X4/pIRES2-EGFP template using PfU Ultra DNA polymerase (Thermo Fisher Scientific). A High-Speed Plasmid Mini Kit (Geneaid, Taipei City, Taiwan) was used to isolate the plasmids for transfection. Dye terminator cycle sequencing (ABI PRISM 3100, Applied Biosystems, Foster City, CA) was used to identify and verify the presence of the mutations. The sequencing was performed by the DNA Sequencing Laboratory, Institute of Microbiology, ASCR, Prague.
(§3) ATP-induced currents were recorded from whole cells clamped to −60 mV using an Axopatch 200B patch-clamp amplifier (Axon Instruments, Union City, CA). The recordings were captured and stored using the Digidata 1322A and pClamp9 software package (Axon Instruments). During the experiments, the cell culture was perfused with a bath solution containing: 142 mM NaCl, 3 mM KCl, 2 mM CaCl2, 1 mM MgCl2, 10 mM 4-(2-Hydroxyethyl)piperazine-1-ethanesulfonic acid (HEPES) and 10 mM D-glucose, adjusted to pH 7.3 with 1 M NaOH. The patch electrodes were filled with a solution containing: 154 mM CsCl, 11 mM EGTA and 10 mM HEPES, adjusted to pH 7.2 with 1.6 M CsOH. The whole-cell configuration was used to abolish the influence of natively present metabotropic receptors for ATP and we used intracellular cesium to block any kind of possible background potassium conductance. Potency of ATP was measured based on the activation of naïve (not previously stimulated) receptors using a short (2–5 s) application of various concentrations of ATP. The results are expressed as molar concentration of ATP required to produce 50% of the maximal response (EC50). One or two responses were recorded from one cell, if not otherwise stated, and responses from different cells were pooled. The maximum current amplitude (Imax) was measured in response to application of supramaximal concentrations (100–1000 µM) of ATP. Responsiveness to P2XR agonists 2-MeS-ATP, ATPγS, BzATP, and α,β-meATP, all applied in 100 µM concentration, was expressed as percentage of response in comparison to 100 µM ATP treatment for selected mutants. In all mutants, the whole cell currents were also measured in the presence of 3 µM IVM, which was dissolved in dimethyl sulfoxide, stored in stock solutions at 10 mM, and diluted to required concentrations in bath solution in the day of experiment. The control and drug containing solutions were applied via a rapid (exchange time 30–40 ms) perfusion system (RSC-200, BIOLOGIC, Claix, France). All other chemicals are from Sigma-Aldrich. […]

For another test, the target named is T2, rP2X4R H286A mutant (Rattus norvegicus, UniProt P51577, H286A).
T2 construct: expressed in transfected cells; host or cells: HEK293T
T2 sequence (P51577 1-388 H286A): T1 sequence (P51577 1-388 I205A) with A205I, H286A
On the procedure:
as §1, §2, §3

For a further test, the target named is T3, rP2X4R L214A mutant (Rattus norvegicus, UniProt P51577, L214A).
T3 construct: expressed in transfected cells; host or cells: HEK293T
T3 sequence (P51577 1-388 L214A): T1 sequence (P51577 1-388 I205A) with A205I, L214A
As to the method:
as §1, §2, §3

Setting [1] is: 100 µM ATP 60 s, biexponential fit.
The mark [2] stands for this setting: contribution of τdes2, 100 µM ATP 60 s.
[3] abbreviates: decay after removal of 1 or 3 µM ATP, 3 µM IVM.
[4] abbreviates: naïve receptors, 2–5 s application.
Setting [5] is: 3 µM IVM 4-6 min vs IVM-untreated.

Numbering of substitutions follows the chain as printed.

As to `Nc1ncnc2c1ncn2C1OC(COP(=O)(O)CP(=O)(O)OP(=O)(O)O)C(O)C1O` (stereo not drawn) [α,β-meATP, α,β-methyleneadenosine 5′-triphosphate], the figures for the relative responsiveness at rP2X4R I205A mutant, at rP2X4R H286A mutant and on rP2X4R L214A mutant were 4.6±1.0 %, 30.0±6.8% and 6.5±1.5 %, respectively.

Usually EC50 stands for the concentration that produces a half-maximal response. Lower therefore signals a more potent agent. Turning to `Nc1ncnc2c1ncn2[C@@H]1O[C@H](COP(=O)(O)OP(=O)(O)OP(=O)(O)O)[C@@H](O)[C@H]1O` [ATP], the “EC50 rightward shift compared to WT” value at rP2X4R I205A mutant and on rP2X4R L214A mutant was “approximately 10 fold” throughout. The values for the τdes1 on rP2X4R I205A mutant (setting [1]), on rP2X4R H286A mutant (setting [1]) and at rP2X4R L214A mutant (setting [1]) were 1.5 ± 0.7 s, 4.0 ± 0.8 s and 1.9 ± 0.4 s, respectively. The τdes2 on rP2X4R I205A mutant (setting [1]) stood at 8.1 ± 1.3 s; at rP2X4R H286A mutant (setting [1]), 16.2 ± 1.6 s; at rP2X4R L214A mutant (setting [1]) it was 12.6 ± 1.9 s. The Imax is listed as 0.6 ± 0.13 nA at rP2X4R I205A mutant (100–1000 µM ATP) and 1.0 ± 0.2 nA on rP2X4R L214A mutant (100–1000 µM ATP). Also, the entries for the “Imax+IVM” value on rP2X4R I205A mutant (ATP after 3 µM IVM 4-6 min), on rP2X4R H286A mutant (ATP after 3 µM IVM 4-6 min) and on rP2X4R L214A mutant (ATP after 3 µM IVM 4-6 min) were 4.3 ± 0.4 nA, 4.2 ± 0.7 nA and 3.9 ± 0.8 nA, respectively. In addition, the “A2 /(A1+A2)” value was 51 ± 4% on rP2X4R I205A mutant (setting [2]), 55 ± 5% at rP2X4R H286A mutant (setting [2]) and 62 ± 3% at rP2X4R L214A mutant (setting [2]). For the same compound, the “τoff +IVM” value at rP2X4R I205A mutant (setting [3]) is 4.1 ± 0.9 s; at rP2X4R H286A mutant (setting [3]) it was 12 ± 2.1 s; on rP2X4R L214A mutant (setting [3]), 3.4 ± 0.6 s. Also, the results for the EC50 at rP2X4R I205A mutant (setting [4]), at rP2X4R H286A mutant (setting [4]) and on rP2X4R L214A mutant (setting [4]) were 26 ± 7.7 µM, 20 ± 2.9 µM and 25 ± 5.7 µM, respectively. Also, the τdes at rP2X4R I205A mutant (weighted, 100 µM ATP 60 s) is 4.9 ± 0.9. s; at rP2X4R H286A mutant (weighted, 100 µM ATP 60 s), 11 ± 1.4 s; at rP2X4R L214A mutant (weighted, 100 µM ATP 60 s), 8.8 ± 1.3 s.

For `CSc1nc(N)c2ncn([C@@H]3O[C@H](COP(=O)(O)OP(=O)(O)OP(=O)(O)O)[C@@H](O)[C@H]3O)c2n1` [2-MeS-ATP, 2-(Methylthio)adenosine 5′-triphosphate], the relative responsiveness on rP2X4R I205A mutant was determined as 35.6±1.9 %; on rP2X4R H286A mutant, 67.9±1.2%; at rP2X4R L214A mutant, 21.4±1.7 %.

For the compound “2′(3′-O-(4-Benzoylbenzoyl)adenosine 5′-triphosphate [BzATP]”, the relative responsiveness on rP2X4R I205A mutant was 4.4±2.6 %; on rP2X4R H286A mutant, 25.6±4.0%; at rP2X4R L214A mutant it was 5.9±0.5 %.

For `Nc1ncnc2c1ncn2[C@@H]1O[C@H](CO[P@](=O)(O)O[P@](=O)(O)O[P@@](=O)(O)S)[C@@H](O)[C@H]1O` [ATPγS, Adenosine 5′-(γ-thio)triphosphate], the relative responsiveness at rP2X4R I205A mutant was determined as 11.3±2.2 %; at rP2X4R H286A mutant, 39.8±6.2%; at rP2X4R L214A mutant, 7.9±2.0 %.

Turning to `CC[C@H](C)[C@H]1O[C@]2(CC[C@@H]1C)C[C@@H]1C[C@@H](C/C=C(\C)[C@@H](O[C@H]3C[C@H](OC)[C@@H](O[C@H]4C[C@H](OC)[C@@H](O)[C@H](C)O4)[C@H](C)O3)[C@@H](C)/C=C/C=C3\CO[C@@H]4[C@H](O)C(C)=C[C@@H](C(=O)O1)[C@]34O)O2` [IVM, ivermectin], the “Fold incr. Imax” value is given as 5.5 ± 0.6 fold on rP2X4R I205A mutant (setting [5]), 1.9 ± 0.3 fold at rP2X4R H286A mutant (setting [5]) and 3.7 ± 0.7 fold on rP2X4R L214A mutant (setting [5]).
